Earlier results in PubChem BioAssay AID1259409 (Chemical Carcinogenesis Research Information System (CCRIS), 2018).

System: rodent chemically induced tumor inhibition, incidence and multiplicity
Assay: CCRIS tumor inhibitor studies
Conditions: for outcome: Strain/Sex: SENCAR/FEMALE, Target Tissue: Type of Lesion: SKIN: TUMOR, Dose [Carcinogen]: 40 NMOL IN 0.2 ML ACETONE ONCE

## CC1(C)[C@@H](O)CC[C@]2(C)[C@H]3C(=O)C=C4[C@@H]5C[C@@](C)(C(=O)O)CC[C@]5(C)CC[C@@]4(C)[C@]3(C)CC[C@@H]12
Carcinogen: 7,12-DIMETHYLBENZ[A]ANTHRACENE, 57-97-6, Dose [Inhibitor]: 0, 10 UMOL IN 0.2 ML DMSO/ACETONE (1:2) 1/D BEGINNING 7 D PRIOR TO CARCINOGEN DOSE (STUDY DURATION: 16 WK), Route [Inhibitor]: DERMAL, Species: MOUSE
  outcome: 100%, 45%, 55%, not calculated at 9 wk; 100%, 85%, 15%, not calculated at 16 wk
Carcinogen: 7,12-DIMETHYLBENZ[A]ANTHRACENE, 57-97-6, Dose [Inhibitor]: 0, 30 UMOL IN DMSO/ACETONE (1:2) 30 MIN PRIOR TO EACH PROMOTER DOSE (STUDY DURATION: 16 WK), Route [Inhibitor]: DERMAL, Species: MOUSE
  outcome: 100%, 40%, 60%, not calculated at 9 wk; 100%, 80%, 20%, not calculated at 16 wk
Carcinogen: 7,12-DIMETHYLBENZ[A]ANTHRACENE, 57-97-6, Dose [Inhibitor]: 10 UMOL APPLIED 40 MINUTES PRIOR TO PROMOTER DOSE (STUDY DURATION: 20 WK), Route [Inhibitor]: DERMAL, Species: MOUSE, Strain/Sex: ICR/FEMALE, Target Tissue: Type of Lesion: SKIN: PAPILLOMA, Dose [Carcinogen]: 100 UG ONCE
  tumour outcome (control, treated, inhibition, significance): 100%, 40%, 60%, p<0.05
Carcinogen: AZOXYMETHANE, 25843-45-2, Dose [Inhibitor]: 0, 1200 PPM IN DIET BEGINNING 1 WK PRIOR TO CARCINOGEN TREATMENT FOR DURATION OF STUDY (STUDY DURATION: 54 WK), Route [Inhibitor]: ORAL, Species: RAT, Strain/Sex: F344/MALE, Target Tissue: Type of Lesion: COLON: ADENOCARCINOMA, Dose [Carcinogen]: 15 MG/KG/BW 1/WK FOR 2 WK, Promoter: NONE USED
  tumour outcome (control, treated, inhibition, significance): 58%, 78%, -35%, not calculated
Carcinogen: AZOXYMETHANE, 25843-45-2, Dose [Inhibitor]: 0, 1200 PPM IN DIET BEGINNING 1 WK PRIOR TO CARCINOGEN TREATMENT FOR DURATION OF STUDY (STUDY DURATION: 54 WK), Route [Inhibitor]: ORAL, Species: RAT, Strain/Sex: F344/MALE, Target Tissue: Type of Lesion: COLON: ADENOMA, Dose [Carcinogen]: 15 MG/KG/BW 1/WK FOR 2 WK, Promoter: NONE USED
  tumour outcome (control, treated, inhibition, significance): 6%, 6%, 0%, not calculated
Carcinogen: AZOXYMETHANE, 25843-45-2, Dose [Inhibitor]: 0, 2400 PPM IN DIET BEGINNING 1 WK PRIOR TO CARCINOGEN TREATMENT FOR DURATION OF STUDY (STUDY DURATION: 54 WK), Route [Inhibitor]: ORAL, Species: RAT, Strain/Sex: F344/MALE, Target Tissue: Type of Lesion: COLON: ADENOMA, Dose [Carcinogen]: 15 MG/KG/BW 1/WK FOR 2 WK, Promoter: NONE USED
  tumour outcome (control, treated, inhibition, significance): 6%, 6%, 0%, not significant
Carcinogen: AZOXYMETHANE, 25843-45-2, Dose [Inhibitor]: 0, 2400 PPM IN DIET BEGINNING 1 WK PRIOR TO CARCINOGEN TREATMENT OF DURATION OF STUDY (STUDY DURATION: 54 WK), Route [Inhibitor]: ORAL, Species: RAT, Strain/Sex: F344/MALE, Target Tissue: Type of Lesion: COLON: ADENOCARCINOMA, Dose [Carcinogen]: 15 MG/KG/BW 1/WK FOR 2 WK, Promoter: NONE USED
  tumour outcome (control, treated, inhibition, significance): 58%, 53%, 9%, not calculated

## CC/C=C\C/C=C\C/C=C\C/C=C\C/C=C\CCCC(=O)O
Carcinogen: 7,12-DIMETHYLBENZ[A]ANTHRACENE, 57-97-6, Dose [Inhibitor]: 0, 0.5 ML 2/WK FOR 19 WK BEGINNING 1 WK POST CARCINOGEN DOSE ADMINISTERED TO RATS FED HIGH-FAT (20% CORN OIL) DIETS (STU, Route [Inhibitor]: GAVAGE, Species: RAT, Strain/Sex: SPRAGUE-DAWLEY/FEMALE, Target Tissue: Type of Lesion: MAMMARY GLAND: ADENOCARCINOMA, Dose [Carcinogen]: 5 MG ONCE AT 50 D OF AGE, Promoter: NONE USED
  tumour outcome (control, treated, inhibition, significance): 24/30 (80%), 10/24 (42%), 48%, p<0.05
Carcinogen: AZOXYMETHANE, 25843-45-2, Dose [Inhibitor]: 4.7% (VOL/VOL) IN 5% FAT DIET CONTAINING 0.3% LINOLEIC ACID FOR DURATION OF STUDY (STUDY DURATION: 26 WK), Route [Inhibitor]: ORAL, Species: RAT, Strain/Sex: DONRYU/MALE, Target Tissue: Type of Lesion: COLON: ADENOCARCINOMA, Dose [Carcinogen]: 7.4 MG/KG BW IN 0.9% SALINE SOLUTION 1/WK FOR FIRST 11 WK, Promoter: NONE USED
  tumour outcome (control, treated, inhibition, significance): 20/29 (69%), 10/30 (33%), 52%, p<0.01

## CCOC(=O)C(C)(C)Br
Carcinogen: N-METHYL-N'-NITRO-N-NITROSOGUANIDINE, 70-25-7, Dose [Inhibitor]: 0, 42 MG/KG TWICE WITHIN 24 HR THEN 105 MG/KG 1/2 WK FOR DURATION OF STUDY BEGINNING 1 WK POST LAST CARCINOGEN DOSE (STU, Route [Inhibitor]: INTRAPERITONEAL, Species: RAT, Strain/Sex: SHR/MALE, Target Tissue: Type of Lesion: STOMACH: ADENOCARCINOMA, Dose [Carcinogen]: 25 UG/ML IN DRINKING WATER FOR 25 WK, Promoter: NONE USED
  tumour outcome (control, treated, inhibition, significance): 10/19 (53%), 2/17 (12%), 77%, p<0.05
Carcinogen: N-METHYL-N'-NITRO-N-NITROSOGUANIDINE, 70-25-7, Dose [Inhibitor]: 0, 42 MG/KG TWICE WITHIN 24 HR THEN 105 MG/KG 1/2 WK FOR DURATION OF STUDY BEGINNING 1 WK POST LAST CARCINOGEN DOSE (STU, Route [Inhibitor]: INTRAPERITONEAL, Species: RAT, Strain/Sex: WISTAR/MALE, Target Tissue: Type of Lesion: STOMACH: ADENOCARCINOMA, Dose [Carcinogen]: 25 UG/ML IN DRINKING WATER FOR 25 WK, Promoter: NONE USED
  tumour outcome (control, treated, inhibition, significance): 2/18 (11%), 0/17 (0%), 100%, not significant
